The term IC50 denotes the concentration that inhibits the measured activity by half.

“And” between values parts separate entries of the source, which are not always exact repeats. Identical values can stand only once. Where a SMILES comes first, the peptide text is derived from it. Bridges are numbered along the chain shown (N, C = ends). [ ]: non-standard residue; d: D form. Pra = C#CC[C@H](N)C(=O)O; βAla = NCCC(=O)O

Assay [1] concerns human platelets (PRP stimulated with ADP). In words: Peptide inhibition of platelet aggregation, light transmission aggregometry in human PRP/ADP. It is filed as cell-based. Conditions: for Peptide Inhibition of Platelet Aggregation, pass/fail result: criterion: inhibition of platelet aggregation, FMP2 IC50 ≤ FMP1 IC50; for IC50: human PRP/ADP, final aggregation, log-dose vs response fit, approximate. The source says: The properties of the FMP2 peptide and peptide-decorated particles (synthetic platelet) were compared to those of the old FMP1 peptide. First, Chang et al. have shown that cyclic RGD peptides are able to selectively bind to activated platelets and prevent human platelet aggregation as measured via platelet light transmission aggregometry. This protocol was adapted and performed to compare the IC50 values of FMP1 and FMP2. Specifically, human whole blood was drawn from healthy, aspirin refraining donors via venipuncture into syringe containing 3.8% w/v sodium citrate. Platelet rich plasma (PRP) was obtained by centrifugation of whole blood in a tabletop centrifuge at 150×g for 15 minutes. Platelet aggregation experiments were performed with 225 μl of 25% o (v/v) diluted PRP stimulated with 25 μl of 10 μM adenosine 5′-diphosphate (ADP) (or saline as a negative control) on a Bio/Data PAP-8E Platelet Aggregation Profiler. 20 μl of saline containing 0.0001 μM to 250 μM of FMP1 or FMP2 (at each order of magnitude) were added to the 25% o diluted PRP, and final aggregation percentage was recorded. In GraphPad Prism®, a non-linear fit of log-dose vs. response was applied to the data, and the IC50 for each peptide was determined by calculating the intersection point at y=50.

The target of assay [2] is GPIIb/IIIa on active human platelets (human) (UniProt P08514). In words: cell-based or functional assay.
Sequence of UniProt P08514 (P08514 32-1039, chain 1 of 2): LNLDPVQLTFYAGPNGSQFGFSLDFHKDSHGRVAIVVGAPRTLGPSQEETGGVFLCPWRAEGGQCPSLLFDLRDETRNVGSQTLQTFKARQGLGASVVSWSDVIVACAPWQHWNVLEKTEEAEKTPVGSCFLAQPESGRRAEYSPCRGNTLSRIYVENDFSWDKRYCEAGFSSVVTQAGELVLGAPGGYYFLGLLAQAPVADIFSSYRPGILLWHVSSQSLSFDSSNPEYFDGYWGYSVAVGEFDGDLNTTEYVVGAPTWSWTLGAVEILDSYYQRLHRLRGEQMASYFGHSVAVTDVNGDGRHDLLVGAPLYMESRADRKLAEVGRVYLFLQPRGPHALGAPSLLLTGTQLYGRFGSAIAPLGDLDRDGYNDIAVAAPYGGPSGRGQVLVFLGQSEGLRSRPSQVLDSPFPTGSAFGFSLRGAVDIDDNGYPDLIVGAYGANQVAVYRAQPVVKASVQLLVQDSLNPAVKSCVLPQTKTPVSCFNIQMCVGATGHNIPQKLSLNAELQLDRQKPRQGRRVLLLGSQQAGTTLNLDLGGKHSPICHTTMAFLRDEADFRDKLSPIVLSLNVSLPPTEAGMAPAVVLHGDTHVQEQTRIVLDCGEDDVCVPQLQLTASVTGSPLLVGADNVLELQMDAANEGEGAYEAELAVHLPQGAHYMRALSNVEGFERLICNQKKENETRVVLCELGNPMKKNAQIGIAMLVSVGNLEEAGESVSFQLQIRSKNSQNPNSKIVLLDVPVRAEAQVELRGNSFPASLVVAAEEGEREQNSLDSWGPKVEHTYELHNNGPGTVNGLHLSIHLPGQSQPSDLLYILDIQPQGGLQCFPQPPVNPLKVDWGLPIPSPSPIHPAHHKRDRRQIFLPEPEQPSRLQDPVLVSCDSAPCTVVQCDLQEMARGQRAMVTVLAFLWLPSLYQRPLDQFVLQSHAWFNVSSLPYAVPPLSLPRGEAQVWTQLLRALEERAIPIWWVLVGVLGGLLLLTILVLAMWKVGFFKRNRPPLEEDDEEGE
Sequence of UniProt P08514 (P05106 27-788, chain 2 of 2, further chain): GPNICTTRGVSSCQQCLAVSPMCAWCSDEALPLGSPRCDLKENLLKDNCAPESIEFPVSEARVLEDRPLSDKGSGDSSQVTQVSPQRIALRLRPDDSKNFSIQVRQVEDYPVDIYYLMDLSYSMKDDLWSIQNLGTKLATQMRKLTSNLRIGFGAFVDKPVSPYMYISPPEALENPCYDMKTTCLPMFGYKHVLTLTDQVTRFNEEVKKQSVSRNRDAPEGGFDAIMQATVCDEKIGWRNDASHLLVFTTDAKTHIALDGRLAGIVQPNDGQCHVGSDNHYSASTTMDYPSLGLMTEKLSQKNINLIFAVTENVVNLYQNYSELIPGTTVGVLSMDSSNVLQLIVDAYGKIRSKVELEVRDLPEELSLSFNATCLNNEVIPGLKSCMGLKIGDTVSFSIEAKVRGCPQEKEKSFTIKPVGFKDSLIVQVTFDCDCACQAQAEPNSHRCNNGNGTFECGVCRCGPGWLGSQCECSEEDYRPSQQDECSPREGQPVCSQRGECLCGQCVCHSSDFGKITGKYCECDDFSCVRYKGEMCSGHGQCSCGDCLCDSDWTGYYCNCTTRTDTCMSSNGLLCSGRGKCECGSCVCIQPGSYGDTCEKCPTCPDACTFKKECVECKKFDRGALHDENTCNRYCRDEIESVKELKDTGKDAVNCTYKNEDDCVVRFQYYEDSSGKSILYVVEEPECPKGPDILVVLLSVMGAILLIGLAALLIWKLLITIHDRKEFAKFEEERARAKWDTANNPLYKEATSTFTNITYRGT

For `C#CC[C@H](N)C(=O)N[C@H]1CSSC[C@@H](C(=O)O)NC(=O)[C@H](CCCNC(=N)N)NC(=O)[C@H](Cc2ccc(OCC)cc2)NC(=O)[C@H](CC(=O)O)NC(=O)CNC(=O)[C@H](CCCNC(=N)N)NC(=O)[C@@H]2CCCN2C(=O)[C@H](CC(N)=O)NC1=O` [FMP1, cyclo-{Pra}CNPRGD{Tyr(OEt)}RC, reference compound] (H-[Pra]CNPRGDY(Et)RC-OH; disulfide 2-10; N-terminus and C-terminus assumed), in assay [1], the “Peptide Inhibition of Platelet Aggregation, pass/fail result” value was “Pass”; the IC50 was ~537 µM and 537 µM.

Take `CCOc1ccc(C[C@@H]2NC(=O)[C@H](CC(=O)O)NC(=O)CNC(=O)[C@H](CCCNC(=N)N)NC(=O)[C@@H]3CCCN3C(=O)[C@H](CC(N)=O)NC(=O)[C@H](CS)NC(=O)CCNC(=O)[C@H](CCCNC(=N)N)NC2=O)cc1` [FMP2, cyclo-(CNPRGD{Tyr(OEt)}R-β-A)] (cyclo(CNPRGDY(Et)R[βAla])): the “concentrations inhibiting platelet aggregation, FMP2 relative to FMP1” value in assay [1] (comparison of IC50) is “over three orders of magnitude below FMP1”. Besides, in assay [1], the “Peptide Inhibition of Platelet Aggregation, pass/fail result” value is given as “Pass”; the IC50 was ~0.13 µM and 0.13 µM.

In assay [2], “FMP1, cyclo-{Pra}CNPRGD{Tyr(OEt)}RC trifluoroacetate salt (peptide)” came in with an IC50 of inhibition of ADP-stimulated human platelet aggregation (light transmission aggregometry, diluted PRP, final aggregation %) of 537 µM.

As for “FMP2, cyclo-(CNPRGD{Tyr(OEt)}R-β-A) trifluoroacetate salt (peptide)”, the IC50 of inhibition of ADP-stimulated human platelet aggregation (light transmission aggregometry, diluted PRP, final aggregation %) in assay [2] worked out at 0.13 µM.

Source of the values: US20260193319A1, “PLATELET-BINDING PROTEINS AND CONJUGATES THEREOF, PARTICLES COMPRISING THEM AND USES THEREOF” (Haima Therapeutics, LLC, priority 2022, published 2026).
